Assay results: ChEMBL document CHEMBL1201862, “PubChem BioAssay data set” (2004)
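Assay format: 96-well plates, 48-hour exposure. Abbreviation: GI50, concentration required for 50% inhibition of growth.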 Calls of active or inactive are those of the source. Cut-off read from the data, not from the text of the source: active = GI50 up to about 1.1 µM and inactive = higher.

Legend:
Assay in all cases: NCI-60 cell line screen, 48 h
[1] = tested on: SK-MEL-28
[2] = tested on: COLO 205
[3] = tested on: OVCAR-3
[4] = tested on: A549
[5] = tested on: CCRF-CEM
[6] = tested on: U-251
[7] = tested on: DU-145
[8] = tested on: OVCAR-5
[9] = tested on: MOLT-4
[10] = tested on: Hs-578T
[11] = tested on: NCI-H226
[12] = tested on: A498
[13] = tested on: HCT-116
[14] = tested on: MCF7
[15] = tested on: OVCAR-8
[16] = tested on: SF-539
[17] = tested on: HT-29
[18] = tested on: HCT-15
[19] = tested on: SN12C
[20] = tested on: PC-3
[21] = tested on: SF-268
[22] = tested on: UO-31
[23] = tested on: SNB-19
[24] = tested on: NCI-H460
[25] = tested on: TK-10
[26] = tested on: SNB-75
[27] = tested on: SW-620
[28] = tested on: BT-549
[29] = tested on: SK-MEL-5
[30] = tested on: CAKI-1
[31] = tested on: HOP-62
[32] = tested on: K562
[33] = tested on: SK-OV-3
[34] = tested on: MDA-N
[35] = tested on: HOP-92
[36] = tested on: T47D
[37] = tested on: HL-60
[38] = tested on: HCC 2998
[39] = tested on: SK-MEL-2
[40] = tested on: 786-0
[41] = tested on: OVCAR-4
[42] = tested on: ACHN
[43] = tested on: SF-295
[44] = tested on: M14
[45] = tested on: LOX IMVI
[46] = tested on: MDA-MB-435
[47] = tested on: SR
[48] = tested on: NCI-H522
[49] = tested on: RPMI-8226
[50] = tested on: RXF 393
[51] = tested on: NCI-H23
[52] = tested on: EKVX
[53] = tested on: MDA-MB-231
[54] = tested on: IGROV-1
[55] = tested on: KM12
[56] = tested on: Malme-3M
[57] = tested on: NCI/ADR-RES
[58] = tested on: UACC-62
[59] = tested on: UACC-257

What does the source list for `CC(C)(C)c1cc(C(=O)/C=C/c2ccc3c(c2)OCO3)cc(C(C)(C)C)c1O`?
GI50 [1]: 18.6 µM (inactive); GI50 [2]: 5.61 µM (inactive); GI50 [3]: 4.53 µM (inactive); GI50 [4]: 9.64 µM (inactive); GI50 [5]: 3.48 µM (inactive); GI50 [6]: 6.68 µM (inactive); GI50 [7]: 5.06 µM (inactive); GI50 [8]: 16.3 µM (inactive); GI50 [9]: 5.6 µM (inactive); GI50 [10]: 6.93 µM (inactive); GI50 [11]: 15.2 µM (inactive); GI50 [12]: 10.3 µM (inactive); GI50 [13]: 4.51 µM (inactive); GI50 [14]: 5.28 µM (inactive); GI50 [15]: 13.6 µM (inactive); GI50 [16]: 6.44 µM (inactive); GI50 [17]: 5.73 µM (inactive); GI50 [18]: 4.83 µM; GI50 [19]: 10.1 µM (inactive); GI50 [20]: 3.99 µM (inactive); GI50 [21]: 8.79 µM (inactive); GI50 [22]: 6.38 µM (inactive); GI50 [23]: 13.3 µM (inactive); GI50 [24]: 4.8 µM (inactive); GI50 [25]: 9.91 µM (inactive); GI50 [26]: 3.2 µM (inactive); GI50 [27]: 5.96 µM (inactive); GI50 [28]: 6.3 µM (inactive); GI50 [29]: 4.2 µM (inactive); GI50 [30]: 9.29 µM (inactive); GI50 [31]: 19.4 µM (inactive); GI50 [32]: 5.24 µM (inactive); GI50 [33]: 15.8 µM (inactive); GI50 [34]: 1.98 µM (inactive); GI50 [35]: 25.6 µM (inactive); GI50 [36]: 2.55 µM (inactive); GI50 [37]: 3.07 µM (inactive); GI50 [38]: 1.75 µM (inactive); GI50 [39]: 3.26 µM (inactive); GI50 [40]: 6.62 µM (inactive); GI50 [41]: 6.95 µM (inactive); GI50 [42]: 8.55 µM (inactive); GI50 [43]: 5.7 µM (inactive); GI50 [44]: 8.11 µM (inactive); GI50 [45]: 8.32 µM (inactive); GI50 [46]: 2.26 µM (inactive); GI50 [47]: 2.18 µM (inactive); GI50 [48]: 11.9 µM (inactive); GI50 [49]: 4.39 µM (inactive); GI50 [50]: 1.86 µM (inactive); GI50 [51]: 9.82 µM (inactive); GI50 [52]: 21.9 µM (inactive); GI50 [53]: 8.11 µM (inactive); GI50 [54]: 17.9 µM (inactive); GI50 [55]: 5.05 µM (inactive); GI50 [56]: 32.4 µM (inactive); GI50 [57]: 4.29 µM (inactive); GI50 [58]: 6.04 µM (inactive); GI50 [59]: 2.95 µM (inactive)
